The results in this text go back to patent US10470987B2, “Process for stimulating hyaluronic acid synthesis” (TOMCAT INTERNATIONAL LIMITED, priority 2015, dated 2019).

This assay has as its system has-2 expression. The assay is described as follows: has-2 expression in human skin fibroblasts by real time quantitative PCR, 6 hours incubation. Conditions: 2 μM, vs untreated. It is filed as cell-based. The procedure:
Human skin fibroblast cells are spread in DMEM medium containing 10% of fetal bovine serum (FBS) and antibiotics (penicillin/streptomycin) and incubated until a 90% confluence is reached. The medium is removed and replaced by fresh medium comprising resveratrol (RSV) or resveratrol oligomers (OR) respectively. Table 1 below indicates the different conditions tested and concentrations used. [table] Human skin fibroblast cells are incubated for 6 hours at 37° C. under 5% CO2. The ARN extraction is made by using the ARN Omega extraction kit. 1 μg of ARN is used and retranscribed into complementary DNA using the ADNc Bio-Rad iScript™ synthesis kit followed by a real time quantitative PCR quantification. The PCR reactions have been carried out using Fast-Start™ DNA Master SYBR Green I real-time PCR kit (Roche Molecular Biochemicals). Each PCR has been carried out in a final volume of 20 μl containing 10 μl of SYBR Green mix 2× (Fast start DNA master SYBR green+Taq DNA polymerase), 2 μl of 10 μM primer mixture (finally 1 μM) and 8 μl of ADNc solution (50 ng). The primers used are described in table 2 below. [table]

Each structure is given as a SMILES string.

For `Oc1ccc(C=Cc2cc(O)cc(O)c2)cc1` [resveratrol, 3,5,4′-trihydroxystilbene], the “increase of has-2 expression by fibroblasts” value was determined as 18% and the “induction of has-2 expression by fibroblasts, factor” value came out at 1.18.
